Measurements taken from patent US20110144014A1, “CYTOKINE RECEPTOR MODULATORS AND USES THEREOF” (CENTRE HOSPITALIER UNIVERSITAIRE SAINTE-JUSTINE, priority 2005, published 2011).
Where a SMILES comes first, the peptide text is derived from it. Where no end group is shown, it is not given here. [ ]: non-standard residue; d: D form.

Experiments:
IGF-1R [1] = molecular target: T1, IGF-1R (Homo sapiens, UniProt P08069); assay: IGF-1 induced proliferation of MCF-7 breast carcinoma cells (3H-thymidine); type: cell-based; design: MCF-7 breast carcinoma cells; endogenous in cells; host or cells: MCF-7; conditions: for Emax / inhibition: MCF7; for inhibition: read-out: efficacy, inhibition of MCF-7 proliferation
Description: We also tested the effect IGF-1R antagonist peptides on IGF-1 induced proliferation in other cancer cell types (MCF-7 breast carcinoma cells, HepG2 hepatocarcinoma cells, and MDA-MB-231 breast adenocarcinoma cells). Different cancer cells were pre-incubated (45 min.) with different concentrations of peptides prior to stimulation with IGF-1 (50 ng/ml) (37° C.) for 24 hours; fetal calf serum was omitted 24 hours prior to stimulation with IGF-1 to avoid proliferative effects by other mitotic agents. ^3H-thymidine (1 μCi/ml) was then added for 24 hours, after which cells were washed three times with 5% cold TCA and lysed with 0.1N NaOH/0.1% Triton X-100. Radioactivity was measured with a scintillation counter. Experiments were repeated 3 times in duplicates (FIG. 15). […]
Target sequence in this assay (P08069 31-736 limits assumed): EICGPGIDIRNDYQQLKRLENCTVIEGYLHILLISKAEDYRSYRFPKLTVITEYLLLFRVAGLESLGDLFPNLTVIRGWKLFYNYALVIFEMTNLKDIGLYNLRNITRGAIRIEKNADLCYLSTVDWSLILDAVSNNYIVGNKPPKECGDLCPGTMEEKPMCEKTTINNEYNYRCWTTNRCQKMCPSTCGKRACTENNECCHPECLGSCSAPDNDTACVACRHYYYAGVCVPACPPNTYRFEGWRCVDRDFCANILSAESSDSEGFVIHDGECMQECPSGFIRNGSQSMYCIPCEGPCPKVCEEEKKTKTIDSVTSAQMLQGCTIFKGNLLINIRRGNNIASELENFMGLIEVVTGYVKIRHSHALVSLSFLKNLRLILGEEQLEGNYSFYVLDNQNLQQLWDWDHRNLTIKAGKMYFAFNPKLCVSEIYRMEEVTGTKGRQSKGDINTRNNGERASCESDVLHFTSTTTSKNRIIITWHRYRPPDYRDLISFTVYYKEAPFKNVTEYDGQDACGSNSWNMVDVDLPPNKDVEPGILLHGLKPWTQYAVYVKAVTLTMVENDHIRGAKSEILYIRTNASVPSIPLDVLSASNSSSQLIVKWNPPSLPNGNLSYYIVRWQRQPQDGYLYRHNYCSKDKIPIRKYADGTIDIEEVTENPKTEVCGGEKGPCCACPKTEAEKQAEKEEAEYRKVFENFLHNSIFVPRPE
Target sequence in this assay (P08069 741-1367 limits assumed): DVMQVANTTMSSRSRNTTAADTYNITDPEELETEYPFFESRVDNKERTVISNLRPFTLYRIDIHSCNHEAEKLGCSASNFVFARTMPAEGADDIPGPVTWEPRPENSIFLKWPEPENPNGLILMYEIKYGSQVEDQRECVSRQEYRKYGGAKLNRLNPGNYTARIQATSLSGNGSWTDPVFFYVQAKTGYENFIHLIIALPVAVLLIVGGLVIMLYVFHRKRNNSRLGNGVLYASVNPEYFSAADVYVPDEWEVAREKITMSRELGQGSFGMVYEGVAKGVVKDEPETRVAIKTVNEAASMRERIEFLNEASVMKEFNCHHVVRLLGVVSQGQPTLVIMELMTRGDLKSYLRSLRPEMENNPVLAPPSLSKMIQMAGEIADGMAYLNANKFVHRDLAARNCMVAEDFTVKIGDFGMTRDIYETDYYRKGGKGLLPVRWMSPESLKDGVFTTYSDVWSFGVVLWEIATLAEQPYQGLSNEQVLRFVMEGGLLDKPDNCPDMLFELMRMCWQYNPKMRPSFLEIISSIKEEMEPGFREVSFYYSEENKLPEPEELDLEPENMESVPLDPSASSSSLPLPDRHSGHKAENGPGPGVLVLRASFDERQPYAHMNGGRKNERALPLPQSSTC

IGF-1R [2] = molecular target: T1, IGF-1R; assay: IGF-1-induced proliferation of NIH3T3 cells transfected with human IGF-1R cDNA (3H-thymidine); type: cell-based; design: expressed in transfected cells; host or cells: NIH3T3; conditions: NIH3T3-IGF-1R cells; IGF-1 50 ng/ml
Description: Derivatives of APG-203 and APG-206 peptides were truncated to determine peptide regions important for activity. Peptides were assayed for efficacy and potency with an ^3H-thymidine incorporation assay. In short, the ^3H-thymidine incorporation proliferation assay was performed in NIH3T3 cells transfected with human IGF-1R cDNA in presence of IGF-1 50 ng/ml and different concentrations of peptides.
Target sequence in this assay (P08069 31-1367): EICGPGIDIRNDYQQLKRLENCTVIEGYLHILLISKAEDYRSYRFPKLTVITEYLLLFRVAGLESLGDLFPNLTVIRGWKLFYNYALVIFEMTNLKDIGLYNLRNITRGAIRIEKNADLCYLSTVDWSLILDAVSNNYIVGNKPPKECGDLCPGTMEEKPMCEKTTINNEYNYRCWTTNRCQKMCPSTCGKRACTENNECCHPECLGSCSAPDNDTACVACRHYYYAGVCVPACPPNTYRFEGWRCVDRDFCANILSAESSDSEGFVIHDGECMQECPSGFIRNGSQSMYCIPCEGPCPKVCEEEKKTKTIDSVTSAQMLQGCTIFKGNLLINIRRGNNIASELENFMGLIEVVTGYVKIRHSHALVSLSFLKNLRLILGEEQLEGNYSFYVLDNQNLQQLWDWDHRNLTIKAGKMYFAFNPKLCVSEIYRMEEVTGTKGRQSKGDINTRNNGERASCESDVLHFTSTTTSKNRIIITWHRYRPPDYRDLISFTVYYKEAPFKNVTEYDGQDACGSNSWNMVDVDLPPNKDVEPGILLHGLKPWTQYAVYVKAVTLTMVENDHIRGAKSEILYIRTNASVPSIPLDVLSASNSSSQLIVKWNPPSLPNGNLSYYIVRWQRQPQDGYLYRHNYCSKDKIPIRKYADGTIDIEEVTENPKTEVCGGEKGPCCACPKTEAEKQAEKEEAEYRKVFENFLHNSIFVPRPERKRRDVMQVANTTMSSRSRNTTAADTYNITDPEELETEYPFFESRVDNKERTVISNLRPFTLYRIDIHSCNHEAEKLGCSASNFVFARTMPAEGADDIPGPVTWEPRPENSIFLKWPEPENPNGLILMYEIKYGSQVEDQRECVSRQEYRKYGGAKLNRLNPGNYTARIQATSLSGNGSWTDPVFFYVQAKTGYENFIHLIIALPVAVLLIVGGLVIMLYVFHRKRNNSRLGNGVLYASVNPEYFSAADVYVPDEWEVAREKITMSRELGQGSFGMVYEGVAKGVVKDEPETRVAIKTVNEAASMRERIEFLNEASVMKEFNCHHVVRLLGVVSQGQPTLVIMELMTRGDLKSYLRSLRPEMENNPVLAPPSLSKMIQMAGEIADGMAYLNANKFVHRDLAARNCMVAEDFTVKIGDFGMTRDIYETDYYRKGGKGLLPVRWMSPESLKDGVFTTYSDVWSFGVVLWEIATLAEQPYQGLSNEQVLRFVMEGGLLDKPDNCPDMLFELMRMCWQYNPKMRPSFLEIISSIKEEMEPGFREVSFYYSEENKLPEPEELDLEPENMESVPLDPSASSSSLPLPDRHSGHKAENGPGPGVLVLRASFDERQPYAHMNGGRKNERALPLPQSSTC

IGF-1R [3] = molecular target: T1, IGF-1R; assay: IGF-1 induced proliferation of MDA-MB-231 breast adenocarcinoma cells (3H-thymidine); type: cell-based; design: MDA-MB-231 breast adenocarcinoma cells; endogenous in cells; host or cells: MDA-MB-231; conditions: for Emax: MDA-MB-231, read-out: Emax, in vitro cell proliferation assay; for EC50: read-out: EC50, in vitro cell proliferation assay
Description: (§1) We also tested the effect IGF-1R antagonist peptides on IGF-1 induced proliferation in other cancer cell types (MCF-7 breast carcinoma cells, HepG2 hepatocarcinoma cells, and MDA-MB-231 breast adenocarcinoma cells). Different cancer cells were pre-incubated (45 min.) with different concentrations of peptides prior to stimulation with IGF-1 (50 ng/ml) (37° C.) for 24 hours; fetal calf serum was omitted 24 hours prior to stimulation with IGF-1 to avoid proliferative effects by other mitotic agents. ^3H-thymidine (1 μCi/ml) was then added for 24 hours, after which cells were washed three times with 5% cold TCA and lysed with 0.1N NaOH/0.1% Triton X-100. Radioactivity was measured with a scintillation counter. Experiments were repeated 3 times in duplicates (FIG. 15).
Target sequence in this assay (P08069 31-736 limits assumed): as the sequence (P08069 31-736 limits assumed) above
Target sequence in this assay (P08069 741-1367 limits assumed): as the sequence (P08069 741-1367 limits assumed) above

IGF-1R [4] = molecular target: T2, IGF-1R (Rattus norvegicus, UniProt P24062); assay: Ex vivo IGF-1-induced vasorelaxation of rat aorta; conditions: IGF-1 25 ng/ml; phenylephrine pre-constriction; read-out: Emax, inhibition of ex vivo IGF-1-induced vasorelaxation of rat aorta
T2 construct: from tissue; host or cells: aorta
T2 sequence (P24062 31-1370): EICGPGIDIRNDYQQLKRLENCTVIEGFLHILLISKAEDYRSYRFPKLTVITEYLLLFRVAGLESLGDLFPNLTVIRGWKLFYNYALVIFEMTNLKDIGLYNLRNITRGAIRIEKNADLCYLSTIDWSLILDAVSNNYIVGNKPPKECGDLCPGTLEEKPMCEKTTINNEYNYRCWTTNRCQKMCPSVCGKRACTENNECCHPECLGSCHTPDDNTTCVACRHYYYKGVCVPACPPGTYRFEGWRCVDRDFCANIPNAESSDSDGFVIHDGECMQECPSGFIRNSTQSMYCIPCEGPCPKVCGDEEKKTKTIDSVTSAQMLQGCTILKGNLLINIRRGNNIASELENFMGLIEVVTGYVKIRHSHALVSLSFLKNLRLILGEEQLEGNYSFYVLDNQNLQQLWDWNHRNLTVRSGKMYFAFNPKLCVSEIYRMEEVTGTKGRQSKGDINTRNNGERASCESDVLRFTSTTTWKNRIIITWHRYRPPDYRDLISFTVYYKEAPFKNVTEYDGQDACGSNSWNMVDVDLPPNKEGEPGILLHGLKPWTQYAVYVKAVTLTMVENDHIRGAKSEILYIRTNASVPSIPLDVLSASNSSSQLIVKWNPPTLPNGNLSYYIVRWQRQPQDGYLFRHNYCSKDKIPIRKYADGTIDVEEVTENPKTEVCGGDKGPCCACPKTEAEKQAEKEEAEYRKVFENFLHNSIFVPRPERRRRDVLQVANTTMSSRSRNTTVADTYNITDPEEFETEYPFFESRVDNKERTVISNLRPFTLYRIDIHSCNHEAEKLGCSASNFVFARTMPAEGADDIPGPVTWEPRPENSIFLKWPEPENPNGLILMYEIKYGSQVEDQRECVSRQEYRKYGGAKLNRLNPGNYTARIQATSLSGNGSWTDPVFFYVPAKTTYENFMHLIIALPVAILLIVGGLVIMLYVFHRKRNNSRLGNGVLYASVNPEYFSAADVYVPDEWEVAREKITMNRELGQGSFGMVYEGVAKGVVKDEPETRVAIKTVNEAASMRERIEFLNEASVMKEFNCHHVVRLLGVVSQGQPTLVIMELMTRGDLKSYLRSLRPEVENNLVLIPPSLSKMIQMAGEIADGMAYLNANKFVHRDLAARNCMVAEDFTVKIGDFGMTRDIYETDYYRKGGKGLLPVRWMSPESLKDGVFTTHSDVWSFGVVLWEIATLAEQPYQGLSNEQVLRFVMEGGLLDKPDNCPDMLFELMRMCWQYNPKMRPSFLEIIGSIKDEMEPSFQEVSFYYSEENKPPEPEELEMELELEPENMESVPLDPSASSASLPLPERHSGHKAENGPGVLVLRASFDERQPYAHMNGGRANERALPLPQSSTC
Description: Aortas were first incubated with different concentrations of peptides and phenylephrine to induce aorta constriction. IGF-1 (25 ng/ml) was then added to induce vasorelaxation. The results are expressed relative to a control aorta not incubated with the peptides. Vascular diameter was measured using a digital image analyzer. Vascular diameter was recorded before and after topical application of pre-constricting agent. After stabilization of the preparation, the ligand (IGF-1, 25 ng/ml) was added until stable vasodilation was detected. Peptides were subsequently added at different concentrations from 10^−8 to 10^−6 M. Reversal of vasodilatation was visualized and measured as described, for example, by Hou et al. (Am. J. Physiol. Regul. Integr. Comp. Physiol. 284:R928-R935 (2003)), Hou et al. (Stroke 31:516-524; discussion 525 (2000)), and Hou et al. (Am. J. Physiol. Regul. Integr. Comp. Physiol. 281:R391-R400 (2001)). Triplicate measurements were conducted on 2 animals.

IGF-1R [5] = molecular target: T1, IGF-1R; assay: IGF-1-induced tyrosine autophosphorylation of IGF-1R (Western Blot); type: cell-based; conditions: peptides 10^−6M, 45 min; IGF-1 50 ng/ml; read-out: inhibition of IGF-1-induced phosphorylation
Description: Cells were incubated with anti-IGF-1R peptides (10^−6M) for 45 minutes and with IGF-1 at 50 ng/ml for either 15 minutes or 5 minutes. Western Blots (phosphorylated tyrosine antibody and IGF-1R antibody) were performed in non-denaturing conditions on total cell lysates (FIG. 17).
Target sequence in this assay (P08069 31-1367, species assumed): as the sequence (P08069 31-1367) above

IGF-1R [6] = molecular target: T1, IGF-1R; assay: IGF-1 induced proliferation of HepG2 hepatocarcinoma cells (3H-thymidine); type: cell-based; design: HepG2 hepatocarcinoma cells; endogenous in cells; host or cells: HepG2; conditions: for Emax: read-out: Emax, in vitro cell proliferation assay
Description: as §1
Target sequence in this assay (P08069 31-736 limits assumed): as the sequence (P08069 31-736 limits assumed) above
Target sequence in this assay (P08069 741-1367 limits assumed): as the sequence (P08069 741-1367 limits assumed) above

IGF-1R [7] = molecular target: T1, IGF-1R; assay: IGF-1 induced proliferation of A549 carcinoma cells (3H-thymidine); type: cell-based; design: endogenous in cells; host or cells: A549
Description: The proliferation induced by IGF-1 was measured in A549 carcinoma cells in the presence of peptides APG201; APG202 and APG204 and of IGF-1 (10 ng/ml-FIG. 8A) and (1 ng/ml-FIG. 8B) pursuant to the incorporated tritiated thymidine method. The cells were preincubated at 37° C. with the different peptides at different concentrations, namely 10^−7, 10^−6 and 10^−5M. The cells were then incubated with IGF-1 (10 ng/ml or 1 ng/ml) for 24 hours and contacted with ^3H-Thymidine for 24 hours, washed, and lysed. Radioactivity levels were measured with a scintillation counter.
Target sequence in this assay (P08069 31-736 limits assumed): as the sequence (P08069 31-736 limits assumed) above
Target sequence in this assay (P08069 741-1367 limits assumed): as the sequence (P08069 741-1367 limits assumed) above

VEGFR2 (Flk-1) [8] = molecular target: T3, VEGFR2 (Flk-1) (Homo sapiens, UniProt P35968); assay: VEGF induced proliferation of PAEC transfected with the Flk-1 gene (3H-thymidine); type: cell-based; conditions: VEGF 2 ng/ml
T3 construct: expressed in transfected cells; host or cells: pulmonary artery endothelial cells (PAEC)
Description: (§2) To determine the efficient and non-cytotoxic concentration of VEGF to use in the assay, a dose-response curve of VEGF was generated in two types of cells, namely microvascular endothelial cells and pulmonary artery endothelial cells (PAEC) that had been transfected with the Flk-1 gene. The proliferation was then measured in those two types of cells in the presence of peptides 2.1, 2.2 and 2.3 and of VEGF (2 ng/ml) pursuant to the incorporated tritiated thymidine method. The cells were preincubated at 37° C. with the different peptides at different concentrations. They were incubated with VEGF (2 ng/ml) for 24 hours. The cells were contacted with ^3H-Thymidine for 24 hours, washed and lysed. The radioactivity was measured with a scintillation counter.

[9] = tested on: neovascularization in rat retinas; assay: Ischemic retinopathy model; type: in vivo; conditions: rat pups, 80% O2 then normoxia; intravitreal, 10 μM final
Description: The efficiency of the selected peptides was verified in vivo in a ischemic retinopathy model, a phenomena highly dependent on VEGF activation. Rat pups were exposed to 80% O2 followed by a period of normoxia (21% O2). The peptides were injected at a final concentration of 10 μM in the vitreous body. The retinas were then retrieved, colored with the ADPase method and mounted on slides. Photographs of the retinas were taken with a microscope linked to a computer and the vascular density was evaluated with the Imagepro software.

VEGFR2 (Flk-1) [10] = assay: VEGF induced proliferation of microvascular endothelial cells (3H-thymidine); type: cell-based, porcine; conditions: VEGF 2 ng/ml
Description: as §2

[11] = MCF-7 (breast cancer) cells, Table 5, read-out: Emax
[12] = MCF-7, IGF-1 50 ng/ml, read-out: Emax, in vitro cell proliferation assay
[13] = A549, IGF-1 10 ng/ml or 1 ng/ml

Row | Compound | Emax (IGF-1R [2]) | inhibition (IGF-1R [1]; IGF-1 50 ng/ml) | Emax (IGF-1R [1]; [12]) | Emax (IGF-1R [3]; MB-MDA-231, IGF-1 50 ng/ml) | Emax (IGF-1R [4]) | other results
1 | ERTVLSNL [APG-206.7] | 100% |  |  |  |  | Emax (IGF-1R [1]; [11]): 90%
2 | TVLSNL [APG-206.9, TVLSNL] | 90% |  |  |  |  | IC50 (IGF-1R [2]): 20 nM
3 | ENFLHLLLA [APG-205] |  | ≤ 90% | 60% | 100% | 25% | 
4 | KERTVISNLR [APG-206] |  | ≤ 90% | 60% |  | 75% | inhibition at 1 µM (IGF-1R [5]): > 70%; Emax (IGF-1R [6]; HepG2, IGF-1 50 ng/ml): 100%
5 | CC(C)C[C@@H](NC(=O)[C@H](N)CO)C(=O)N[C@H](Cc1ccccc1)C(=O)N[C@@H](C(=O)N1CCC[C@@H]1C(=O)N[C@H](CCCNC(=N)N)C(=O)N1CCC[C@@H]1C(=O)N[C@H](CCC(=O)O)C(=O)N[C@H](CCCNC(=N)N)C(=O)N[C@H](CCCCN)C(=O)O)C(C)C [APG-201] (H-[dS][dL][dF][dV][dP][dR][dP][dE][dR][dK]-OH; N-terminus and C-terminus assumed) |  |  | 20% | 100% |  | potency in MDA-MB-231 (IGF-1R [3]; ER insensitive cells): nanomolar potencies; EC50 (IGF-1R [3]; MB-MDA-231, IGF-1 50 ng/ml): 0.1 nM; EC50 (IGF-1R [7]): 1000 nM; IGF-1 induced proliferation (IGF-1R [7]; [13]): completely abrogated
6 | IRKYADGTI [APG-204] |  | ≤ 90% | 90% | 100% | 25% | inhibition at 1 µM (IGF-1R [5]): 30%
7 | CC(C)C[C@@H](NC(=O)[C@@H](CCCNC(=N)N)NC(=O)[C@H](NC(=O)[C@@H](CCCNC(=N)N)NC(=O)[C@@H](CCC(=O)O)NC(=O)CNC(=O)[C@H](NC(=O)[C@H](NC(=O)[C@@H](C)NC(=O)[C@H](N)CCC(=O)O)[C@H](C)O)C(C)C)C(C)C)C(=O)O [Peptide 2.2] (H-[dE][dA][dT][dV]G[dE][dR][dV][dR][dL]-OH; N-terminus and C-terminus assumed) |  |  |  |  |  | EC50 (VEGFR2 (Flk-1) [8]): 9000 nM; induced neovascularization [9]: most effective inhibitor of neovascularization; VEGF induced proliferation (VEGFR2 (Flk-1) [10]): completely abrogated
8 | KERTVLS [APG-206.5, KERTVLS] | 75% |  |  |  |  | Emax (IGF-1R [1]; [11]): 100%
9 | RTNASVPSI [APG-203] |  | ≤ 90% | 45% | 100% | 50% | EC50 (IGF-1R [1]; IGF-1 50 ng/ml, read-out: potency, inhibition of MCF-7 proliferation): 0.1 to 60 nM; EC50 (IGF-1R [3]; MB-MDA-231, IGF-1 50 ng/ml): 0.1 nM; efficacy, inhibition of HepG2 proliferation (IGF-1R [6]): 50%; EC50 (IGF-1R [6]; HepG2, IGF-1 50 ng/ml, read-out: EC50, in vitro cell proliferation assay): < 0.1 nM; Emax (IGF-1R [6]; HepG2, IGF-1 50 ng/ml): 100%
10 | CC(C)C[C@@H](NC(=O)[C@H](NC(=O)[C@@H](CC(=O)O)NC(=O)[C@@H](CO)NC(=O)[C@H](N)CCC(=O)O)C(C)C)C(=O)N[C@H](Cc1c[nH]cn1)C(=O)N[C@H](Cc1ccccc1)C(=O)N[C@@H](C(=O)N[C@H](CO)C(=O)N[C@@H](C(=O)O)[C@H](C)O)[C@H](C)O [APG-202] (H-[dE][dS][dD][dV][dL][dH][dF][dT][dS][dT]-OH; N-terminus and C-terminus assumed) |  |  | 20% |  |  | EC50, in vitro cell proliferation assay (IGF-1R [3]; MB-MDA-231, IGF-1 50 ng/ml): Not active; IGF-1 induced proliferation (IGF-1R [7]; [13]): completely abrogated; EC50 (IGF-1R [7]; A549, IGF-1 10 ng/ml or 1 ng/ml, read-out: EC50, IGF-1 induced proliferation): 10 nM
